{"source": "patent US20160115540A1", "about": "“PRODRUGS AND DRUGS” (Biogen MA Inc., priority 2013, published 2016)", "tested_on": "lymph node", "experiment": "Transcriptional profiling, chronic dosing, EAE mice: lymph node", "format": "in vivo", "conditions": "for Number of differentially expressed genes identified: Lymph Node: EAE, Chronic Dosing", "excerpt": "EAE induction is generally performed by immunization with brain extracts, CNS proteins (such as myelin basic protein), or peptides from such protein emulsified in an adjuvant such as complete Freund's adjuvant, e.g., as described in Linker et al., Brain. 2011 March 134(Pt3): 678-92. […] FIG. 17 depicts exemplary immunophenotyping panels used to analyze various immune cell populations (e.g., T cells, T regulatory cells, NK cells, B cells, myeloid cells). […] The number of independent mice whose tissues were harvested for transcript profiling studies and whose data passed QC is shown in TABLE 15. Animals were exposed to CO2 and whole blood collected via cardiac puncture. Two 100 μl aliquots of whole blood were collected in 1.5 mL microcentrifuge tubes and snap frozen in liquid nitrogen. Peripheral (liver, spleen, kidney and jejunum) and CNS brain (cerebellum, hippocampus, striatum and cortex) tissues were harvested and snap frozen in liquid nitrogen, with special care taken to collect tissues of similar size and from the same location. All samples were stored at -80° C. until RNA extraction was conducted. For RNA preparation, frozen tissues were placed in 2 mL RNAse-free 96-well blocks with 1.5 mL QIAzol Lysis Reagent (QIAgen) and a 3.2 mm stainless steel bead (BioSpec Products, Bartlesville, Okla.). Tissues were disrupted for four cycles of 45 seconds in a Mini-Beadbeater (Biospec Products). RNA was extracted in chloroform and the aqueous phase was mixed with an equal volume of 70% ethanol. Extracted RNA was applied to RNeasy 96 plates and purified by the spin method according to the manufacturer's protocol (RNeasy 96 Universal Tissue Protocol, QIAgen, Hilden Germany). […] Washing and staining of the hybridized arrays were completed as described in the GeneChip Expression analysis technical manual for HT plate arrays using the Genechip® Array Station (Affymetrix, Santa Clara, Calif.) with modifications as described in […] et al. The processed GeneChip® plate arrays were scanned using GeneTitan scanner (Affymetrix, Santa Clara, Calif.). Affymetrix scans were subject to quality control (QC) measures. These tests included a visual inspection of the distribution of raw signal intensities and an assessment of RNA degradation, relative log expression (RLE), and normalized unscaled standard error (NUSE). All sample scans that passed these QC metrics were included in the analysis. All CEL files were subjected to GC-content-based Robust Multi-array Average (GCRMA) normalization (version 2.20.0) (Irizarry R A, et al. Nucleic Acids Res 2003; 31:e15; Li C, et al. Genome Biol 2001; 2:[…]0032). […] Stat Appl Genet Mol Biol 2004; 3:Article3). […] Springer Science+Business Media 2005). Changes in gene expression were studied by applying a linear modeling approach to fit gene expression levels according to the defined groups of samples (e.g. DMF-, MMF-, and Vehicle-treated animals) and Bayesian posterior error analysis as implemented by Smyth (Smyth G K. Stat Appl Genet Mol Biol 2004; 3:Article3). The comparisons considered included: DMF-vs-MMF, DMF-vs-Vehicle, MMF-vs-Vehicle, and Vehicle-vs-Naïve.", "key": {"[1]": {"conditions": "lymph node, 100DMF-vs-90MMF, 7 h"}, "[2]": {"conditions": "lymph node, 100DMF-vs-90MMF, 12 h"}, "[3]": {"conditions": "lymph node, 100DMF-vs-Veh, 12 h"}, "[4]": {"conditions": "lymph node, 100MMF-vs-Veh, 12 h"}}, "note": "Where a name gives a salt, the structure may show the parent alone.", "data": [{"smiles": "COC(=O)/C=C/C(=O)OC", "note": "[DMF, dimethyl fumarate]", "values": [{"measurement": "Number of differentially expressed genes identified: Lymph Node", "setting": "100 mpk DMF-vs-90 mpk MMF, 7 h after last dosing", "value": 2}, {"measurement": "Number of differentially expressed genes identified: Lymph Node", "setting": "100 mpk DMF-vs-90 mpk MMF, 12 h after last dosing", "value": 6}, {"measurement": "Number of differentially expressed genes identified: Lymph Node", "setting": "100 mpk DMF-vs-Vehicle, 7 h after last dosing", "value": 14}, {"measurement": "Number of differentially expressed genes identified: Lymph Node", "setting": "100 mpk DMF-vs-Vehicle, 12 h after last dosing", "value": 8}, {"measurement": "FC BC005685 (1426188_PM_s_at)", "setting": "[1]", "value": "−1.54"}, {"measurement": "FC Slc10a6 (1428776_PM_at)", "setting": "[1]", "value": "−1.52"}, {"measurement": "FC 1442025_PM_a_at (no gene symbol)", "setting": "[2]", "value": 2.64}, {"measurement": "FC 1442026_PM_at (no gene symbol)", "setting": "[2]", "value": 2.92}, {"measurement": "FC Angptl4 (1417130_PM_s_at)", "setting": "[2]", "value": 2.93}, {"measurement": "FC Cpt1a (1460409_PM_at)", "setting": "[2]", "value": 1.56}, {"measurement": "FC Klf11 (1437241_PM_at)", "setting": "[2]", "value": 1.91}, {"measurement": "FC Zbtb16 (1419874_PM_x_at)", "setting": "[2]", "value": 2.14}, {"measurement": "FC Clec4e (1420330_PM_at)", "setting": "lymph node, 100DMF-vs-Veh, 7 h", "value": 1.55}, {"measurement": "FC Clec4d (1420804_PM_s_at)", "setting": "lymph node, 100DMF-vs-Veh, 7 h", "value": 1.85}, {"measurement": "FC Gdf3 (1449288_PM_at)", "setting": "lymph node, 100DMF-vs-Veh, 7 h", "value": "−1.57"}, {"measurement": "FC Mmp12 (1449153_PM_at)", "setting": "lymph node, 100DMF-vs-Veh, 7 h", "value": 3.33}, {"measurement": "FC Nqo1 (1423627_PM_at)", "setting": "lymph node, 100DMF-vs-Veh, 7 h", "value": 2.79}, {"measurement": "FC Osgin1 (1424022_PM_at)", "setting": "lymph node, 100DMF-vs-Veh, 7 h", "value": 1.54}, {"measurement": "FC Rnf128 (1449036_PM_at)", "setting": "lymph node, 100DMF-vs-Veh, 7 h", "value": 1.71}, {"measurement": "FC Slc11a1 (1420361_PM_at)", "setting": "lymph node, 100DMF-vs-Veh, 7 h", "value": 1.57}, {"measurement": "FC Srxn1 (1419942_PM_at)", "setting": "lymph node, 100DMF-vs-Veh, 7 h", "value": 1.98}, {"measurement": "FC Srxn1 (1426875_PM_s_at)", "setting": "lymph node, 100DMF-vs-Veh, 7 h", "value": 1.83}, {"measurement": "FC Tnfaip2 (1416273_PM_at)", "setting": "lymph node, 100DMF-vs-Veh, 7 h", "value": 1.82}, {"measurement": "FC Tnfaip2 (1438855_PM_x_at)", "setting": "lymph node, 100DMF-vs-Veh, 7 h", "value": 1.52}, {"measurement": "FC Ugt1a1 /// Ugt1a10 /// Ugt1a2 /// Ugt1a5 /// Ugt1a6a /// Ugt1a6b /// Ugt1a7c /// Ugt1a9 (1424783_PM_a_at)", "setting": "lymph node, 100DMF-vs-Veh, 7 h", "value": 1.52}, {"measurement": "FC Ugt1a1 /// Ugt1a10 /// Ugt1a2 /// Ugt1a5 /// Ugt1a6a /// Ugt1a6b /// Ugt1a7c /// Ugt1a9 (1426261_PM_s_at)", "setting": "lymph node, 100DMF-vs-Veh, 7 h", "value": 1.62}, {"measurement": "FC 1442025_PM_a_at (no gene symbol)", "setting": "[3]", "value": 2.35}, {"measurement": "FC 1442026_PM_at (no gene symbol)", "setting": "[3]", "value": 2.48}, {"measurement": "FC Clec4d (1420804_PM_s_at)", "setting": "[3]", "value": 2.19}, {"measurement": "FC Gzmk (1422280_PM_at)", "setting": "[3]", "value": 1.92}, {"measurement": "FC Npas2 (1421037_PM_at)", "setting": "[3]", "value": 1.53}, {"measurement": "FC Nqo1 (1423627_PM_at)", "setting": "[3]", "value": 1.70}, {"measurement": "FC Ugt1a1 /// Ugt1a10 /// Ugt1a2 /// Ugt1a5 /// Ugt1a6a /// Ugt1a6b /// Ugt1a7c /// Ugt1a9 (1424783_PM_a_at)", "setting": "[3]", "value": 1.56}, {"measurement": "FC Zbtb16 (1419874_PM_x_at)", "setting": "[3]", "value": 2.07}, {"measurement": "Zbtb16 transcript signal, DMF-treated compared to MMF-treated animals", "setting": "lymph node, chronically dosed EAE mice, 12 h after final dosing", "value": "increased signal"}]}, {"smiles": "COC(=O)/C=C/C(=O)O", "note": "[MMF, monomethyl fumarate]", "values": [{"measurement": "Number of differentially expressed genes identified: Lymph Node", "setting": "90 mpk MMF-vs-Vehicle, 7 h after last dosing", "value": 21}, {"measurement": "Number of differentially expressed genes identified: Lymph Node", "setting": "90 mpk MMF-vs-Vehicle, 12 h after last dosing", "value": 7}, {"measurement": "FC BC005685 (1426188_PM_s_at)", "setting": "lymph node, 100MMF-vs-Veh, 7 h", "value": 1.54}, {"measurement": "FC C78662 (1442498_PM_at)", "setting": "lymph node, 100MMF-vs-Veh, 7 h", "value": 1.68}, {"measurement": "FC Clec4e (1420330_PM_at)", "setting": "lymph node, 100MMF-vs-Veh, 7 h", "value": 2.02}, {"measurement": "FC Clec4e (1420331_PM_at)", "setting": "lymph node, 100MMF-vs-Veh, 7 h", "value": 1.80}, {"measurement": "FC Clec4d (1420804_PM_s_at)", "setting": "lymph node, 100MMF-vs-Veh, 7 h", "value": 2.40}, {"measurement": "FC Ctgf (1416953_PM_at)", "setting": "lymph node, 100MMF-vs-Veh, 7 h", "value": 2.34}, {"measurement": "FC Hs3st1 (1423450_PM_a_at)", "setting": "lymph node, 100MMF-vs-Veh, 7 h", "value": 1.72}, {"measurement": "FC Il1f9 1425958_PM_at", "setting": "lymph node, 100MMF-vs-Veh, 7 h", "value": 1.86}, {"measurement": "FC Mmp12 (1449153_PM_at)", "setting": "lymph node, 100MMF-vs-Veh, 7 h", "value": 5.16}, {"measurement": "FC Nqo1 (1423627_PM_at)", "setting": "lymph node, 100MMF-vs-Veh, 7 h", "value": 2.59}, {"measurement": "FC Osgin1 (1424022_PM_at)", "setting": "lymph node, 100MMF-vs-Veh, 7 h", "value": 1.50}, {"measurement": "FC Pla2g7 (1430700_PM_a_at)", "setting": "lymph node, 100MMF-vs-Veh, 7 h", "value": 1.67}, {"measurement": "FC Rnf128 (1449036_PM_at)", "setting": "lymph node, 100MMF-vs-Veh, 7 h", "value": 1.81}, {"measurement": "FC Slc11a1 (1420361_PM_at)", "setting": "lymph node, 100MMF-vs-Veh, 7 h", "value": 1.57}, {"measurement": "FC Slc40a1 1448566_PM_at", "setting": "lymph node, 100MMF-vs-Veh, 7 h", "value": 1.87}, {"measurement": "FC Slc40a1 (1417061_PM_at)", "setting": "lymph node, 100MMF-vs-Veh, 7 h", "value": 1.80}, {"measurement": "FC Srxn1 (1419942_PM_at)", "setting": "lymph node, 100MMF-vs-Veh, 7 h", "value": 1.93}, {"measurement": "FC Srxn1 (1426875_PM_s_at)", "setting": "lymph node, 100MMF-vs-Veh, 7 h", "value": 1.80}, {"measurement": "FC Tnfaip2 (1416273_PM_at)", "setting": "lymph node, 100MMF-vs-Veh, 7 h", "value": 1.86}, {"measurement": "FC Tnfaip2 (1438855_PM_x_at)", "setting": "lymph node, 100MMF-vs-Veh, 7 h", "value": 1.55}, {"measurement": "FC Ugt1a1 /// Ugt1a10 /// Ugt1a2 /// Ugt1a5 /// Ugt1a6a /// Ugt1a6b /// Ugt1a7c /// Ugt1a9 (1426261_PM_s_at)", "setting": "lymph node, 100MMF-vs-Veh, 7 h", "value": 1.55}, {"measurement": "FC Ccl3 (1419561_PM_at)", "setting": "[4]", "value": 2.22}, {"measurement": "FC Clec4d (1420804_PM_s_at)", "setting": "[4]", "value": 2.43}, {"measurement": "FC Kcne3 (1418499_PM_a_at)", "setting": "[4]", "value": 1.56}, {"measurement": "FC Mmp9 (1416298_PM_at)", "setting": "[4]", "value": 1.82}, {"measurement": "FC Mmp12 (1449153_PM_at)", "setting": "[4]", "value": 3.95}, {"measurement": "FC Npas2 (1421037_PM_at)", "setting": "[4]", "value": 1.56}, {"measurement": "FC Tnfaip2 (1416273_PM_at)", "setting": "[4]", "value": 1.54}]}]}
